The structures appear in SMILES notation. Bounds are passed on as bounds.

This note sets out measurements from ChEMBL document CHEMBL5380813, “Discovery of 2H-Indazole-3-carboxamide Derivatives as Novel Potent Prostanoid EP4 Receptor Antagonists for Colorectal Cancer Immunotherapy” (J Med Chem, 2023).

For data set [1], the target named is T1, Prostaglandin E2 receptor EP4 subtype (Homo sapiens, UniProt P35408). Nature of the data set: Antagonist activity at human EP4 receptor transfected in HEK293 cells assessed as inhibition of PGE2-induced cAMP production measured for 30 mins by Glosensor cAMP assay. A general note: Changes in cAMP serve as a functional read-out for many G protein-coupled receptors.

Data set [2] is described as follows: Metabolic stability in human liver assessed as intrinsic clearance.
The target of data set [3] is T1, Prostaglandin E2 receptor EP4 subtype. The data set is described as follows: Antagonist activity at EP4 receptor (unknown origin) by GloSensor cAMP assay.
Another data set addresses T2, Cytochrome P450 1A2 (Homo sapiens, UniProt P05177).
T2 sequence (P05177 whole entry): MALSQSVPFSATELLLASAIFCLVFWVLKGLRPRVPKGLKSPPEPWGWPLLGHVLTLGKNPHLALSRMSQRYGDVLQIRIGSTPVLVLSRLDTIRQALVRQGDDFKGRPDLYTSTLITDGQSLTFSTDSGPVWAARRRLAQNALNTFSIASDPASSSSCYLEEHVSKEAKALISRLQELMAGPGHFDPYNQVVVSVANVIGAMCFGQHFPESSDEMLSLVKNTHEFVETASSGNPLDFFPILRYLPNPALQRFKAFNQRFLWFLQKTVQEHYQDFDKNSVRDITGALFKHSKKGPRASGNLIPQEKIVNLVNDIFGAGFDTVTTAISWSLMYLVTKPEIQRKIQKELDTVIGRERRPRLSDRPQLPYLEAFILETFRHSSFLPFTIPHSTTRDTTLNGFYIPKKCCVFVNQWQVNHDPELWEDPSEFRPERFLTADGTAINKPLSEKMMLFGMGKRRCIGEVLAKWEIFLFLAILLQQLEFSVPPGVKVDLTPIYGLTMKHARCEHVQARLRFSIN
The data set is described as follows: Inhibition of CYP1A2 (unknown origin). The format is ADME.

The target of a further data set is CYP3A (Homo sapiens, UniProt P08684+P20815+P24462+Q9HB55). Nature of the data set: Inhibition of CYP3A (unknown origin) assessed as reduction in midazolam […] activity. Type of data set: ADME, protein assay. As to conditions: probe midazolam.
Data set [4] addresses T3, Prostaglandin E2 receptor EP3 subtype (Homo sapiens, UniProt P43115).
T3 sequence (P43115 whole entry): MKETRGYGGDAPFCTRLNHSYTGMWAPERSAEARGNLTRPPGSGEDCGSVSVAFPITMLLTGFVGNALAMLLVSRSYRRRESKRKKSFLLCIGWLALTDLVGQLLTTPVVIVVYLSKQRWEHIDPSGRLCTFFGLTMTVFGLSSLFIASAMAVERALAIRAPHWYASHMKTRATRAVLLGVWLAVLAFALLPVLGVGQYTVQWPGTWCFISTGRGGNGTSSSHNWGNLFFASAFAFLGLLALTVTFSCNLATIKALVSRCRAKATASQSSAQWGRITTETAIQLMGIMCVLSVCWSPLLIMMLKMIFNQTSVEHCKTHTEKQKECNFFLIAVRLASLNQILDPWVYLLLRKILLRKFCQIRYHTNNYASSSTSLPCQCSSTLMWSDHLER
The data set is described as follows: Antagonist activity at human EP3 receptor expressed in CHO cells co-expressing Galpha16 assessed as inhibition of PGE2 induced intracellular calcium flux preincubated for 20 mins followed by PGE2 stimulation and measured immediately by microplate reader analysis. The format is functional, cell-based.

The next data set addresses Cytochrome P450 2D6 (Homo sapiens, UniProt P10635). Nature of the data set: Inhibition of CYP2D6 (unknown origin). The format is ADME.
A further data set concerns the target Cytochrome P450 2C9 (Homo sapiens, UniProt P11712). The data set is described as follows: Inhibition of CYP2C9 (unknown origin). Type of data set: ADME.
Data set [5] concerns the target Prostaglandin E2 receptor EP2 subtype (Homo sapiens, UniProt P43116). Nature of the data set: Antagonist activity at human EP2 receptor expressed in CHO cells co-expressing Galpha16 assessed as inhibition of PGE2 induced intracellular calcium flux preincubated for 20 mins followed by PGE2 stimulation and measured immediately by microplate reader analysis. The format is functional, cell-based.

Data set [6] addresses Prostaglandin E2 receptor EP4 subtype (Rattus norvegicus, UniProt P43114). Nature of the data set: Antagonist activity at rat EP4 receptor transfected in HEK293 cells assessed as inhibition of PGE2-induced cAMP production measured for 30 mins by Glosensor cAMP assay. The format is functional, cell-based.
The target of data set [7] is Prostaglandin E2 receptor EP4 subtype (Mus musculus, UniProt P32240). Nature of the data set: Antagonist activity at mouse EP4 receptor transfected in HEK293 cells assessed as inhibition of PGE2-induced cAMP production measured for 30 mins by Glosensor cAMP assay. The format is functional, cell-based.
Another data set deals with Cytochrome P450 2C19 (Homo sapiens, UniProt P33261). The data set is described as follows: Inhibition of CYP2C19 (unknown origin). The format is ADME.
For data set [8] the following is noted: human, microsomes.
Description: Metabolic stability in human liver microsomes assessed as assessed as intrinsic clearance
For a further data set, the system named is CT26. Nature of the data set: animal or person. As to conditions: Mus musculus, CT26, po, 240 h, read-out: TGI.

T1 sequence (P35408 whole entry): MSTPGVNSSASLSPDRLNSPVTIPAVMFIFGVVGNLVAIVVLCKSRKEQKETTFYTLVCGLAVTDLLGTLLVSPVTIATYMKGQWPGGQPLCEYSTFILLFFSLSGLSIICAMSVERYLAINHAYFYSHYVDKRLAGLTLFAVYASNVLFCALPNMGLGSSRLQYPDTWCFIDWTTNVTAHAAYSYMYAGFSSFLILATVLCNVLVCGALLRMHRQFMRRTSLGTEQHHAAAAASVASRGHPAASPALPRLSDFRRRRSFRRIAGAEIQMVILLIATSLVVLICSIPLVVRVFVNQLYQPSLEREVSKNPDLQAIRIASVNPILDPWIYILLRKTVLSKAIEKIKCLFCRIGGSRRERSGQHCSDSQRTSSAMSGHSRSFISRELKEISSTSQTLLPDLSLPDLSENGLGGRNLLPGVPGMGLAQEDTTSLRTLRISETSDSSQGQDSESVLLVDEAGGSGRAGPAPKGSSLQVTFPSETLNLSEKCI
Cytochrome P450 2C9, sequence (P11712 whole entry): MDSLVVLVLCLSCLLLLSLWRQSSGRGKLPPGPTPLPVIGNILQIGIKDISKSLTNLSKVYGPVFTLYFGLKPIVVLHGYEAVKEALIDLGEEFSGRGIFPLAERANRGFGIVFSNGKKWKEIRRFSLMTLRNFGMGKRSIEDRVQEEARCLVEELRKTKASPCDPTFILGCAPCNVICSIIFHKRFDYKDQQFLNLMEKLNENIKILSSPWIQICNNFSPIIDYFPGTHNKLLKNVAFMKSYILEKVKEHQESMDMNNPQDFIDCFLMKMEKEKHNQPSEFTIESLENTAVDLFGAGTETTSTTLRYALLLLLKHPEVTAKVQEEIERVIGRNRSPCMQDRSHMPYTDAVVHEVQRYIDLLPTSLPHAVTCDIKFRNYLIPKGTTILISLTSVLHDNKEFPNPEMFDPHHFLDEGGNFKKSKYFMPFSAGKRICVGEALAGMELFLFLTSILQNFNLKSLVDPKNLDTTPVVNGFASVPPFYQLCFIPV
Prostaglandin E2 receptor EP2 subtype, sequence (P43116 whole entry): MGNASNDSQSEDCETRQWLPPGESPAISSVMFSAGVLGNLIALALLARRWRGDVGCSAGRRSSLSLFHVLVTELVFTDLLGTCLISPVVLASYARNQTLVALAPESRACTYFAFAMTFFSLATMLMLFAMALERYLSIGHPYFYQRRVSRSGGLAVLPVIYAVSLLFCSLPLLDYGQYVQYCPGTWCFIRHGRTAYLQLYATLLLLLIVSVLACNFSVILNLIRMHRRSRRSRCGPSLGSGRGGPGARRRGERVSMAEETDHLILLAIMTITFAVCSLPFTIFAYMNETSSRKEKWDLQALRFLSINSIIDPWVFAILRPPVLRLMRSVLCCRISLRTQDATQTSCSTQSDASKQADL
Prostaglandin E2 receptor EP4 subtype (Rattus norvegicus, UniProt P43114), sequence (P43114 whole entry): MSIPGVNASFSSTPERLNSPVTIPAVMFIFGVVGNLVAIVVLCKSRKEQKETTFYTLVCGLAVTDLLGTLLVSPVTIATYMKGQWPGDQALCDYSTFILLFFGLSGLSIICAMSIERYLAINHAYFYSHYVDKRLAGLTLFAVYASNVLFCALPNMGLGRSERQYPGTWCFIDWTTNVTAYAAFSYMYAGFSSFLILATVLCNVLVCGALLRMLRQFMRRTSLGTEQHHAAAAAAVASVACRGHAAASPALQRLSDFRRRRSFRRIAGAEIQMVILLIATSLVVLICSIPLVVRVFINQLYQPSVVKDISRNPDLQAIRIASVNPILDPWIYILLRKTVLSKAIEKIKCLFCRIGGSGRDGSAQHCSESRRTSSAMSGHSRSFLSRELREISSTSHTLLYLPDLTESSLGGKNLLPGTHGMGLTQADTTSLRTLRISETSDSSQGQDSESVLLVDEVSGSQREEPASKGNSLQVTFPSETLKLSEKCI
Cytochrome P450 2D6, sequence (P10635 whole entry): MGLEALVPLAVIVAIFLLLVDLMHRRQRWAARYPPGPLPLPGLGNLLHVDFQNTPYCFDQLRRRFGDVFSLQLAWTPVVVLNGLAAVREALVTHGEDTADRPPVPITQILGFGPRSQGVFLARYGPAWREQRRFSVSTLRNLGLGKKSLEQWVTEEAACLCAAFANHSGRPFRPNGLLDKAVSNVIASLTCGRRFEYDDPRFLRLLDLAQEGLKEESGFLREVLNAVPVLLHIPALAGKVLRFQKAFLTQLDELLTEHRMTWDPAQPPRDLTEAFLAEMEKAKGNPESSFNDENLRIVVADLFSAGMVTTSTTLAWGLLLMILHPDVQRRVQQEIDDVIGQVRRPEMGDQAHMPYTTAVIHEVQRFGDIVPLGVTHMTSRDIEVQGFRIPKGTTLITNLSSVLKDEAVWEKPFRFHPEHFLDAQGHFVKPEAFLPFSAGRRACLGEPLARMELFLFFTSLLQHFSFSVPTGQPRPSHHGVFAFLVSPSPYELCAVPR
Prostaglandin E2 receptor EP4 subtype (Mus musculus, UniProt P32240), sequence (P32240 whole entry): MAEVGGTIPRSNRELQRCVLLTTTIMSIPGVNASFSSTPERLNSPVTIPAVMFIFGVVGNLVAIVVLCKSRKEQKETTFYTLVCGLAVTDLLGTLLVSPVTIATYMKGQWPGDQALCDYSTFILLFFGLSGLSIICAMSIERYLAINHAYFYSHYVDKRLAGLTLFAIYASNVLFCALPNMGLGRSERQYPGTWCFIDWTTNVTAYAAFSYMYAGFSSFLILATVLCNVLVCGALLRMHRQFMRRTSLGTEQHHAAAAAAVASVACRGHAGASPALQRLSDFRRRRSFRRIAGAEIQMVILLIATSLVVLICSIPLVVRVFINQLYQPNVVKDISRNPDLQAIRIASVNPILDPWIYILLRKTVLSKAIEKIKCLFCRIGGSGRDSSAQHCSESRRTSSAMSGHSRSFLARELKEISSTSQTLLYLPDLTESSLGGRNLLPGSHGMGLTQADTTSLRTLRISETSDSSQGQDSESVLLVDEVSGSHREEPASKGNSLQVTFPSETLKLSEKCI
Cytochrome P450 2C19, sequence (P33261 whole entry): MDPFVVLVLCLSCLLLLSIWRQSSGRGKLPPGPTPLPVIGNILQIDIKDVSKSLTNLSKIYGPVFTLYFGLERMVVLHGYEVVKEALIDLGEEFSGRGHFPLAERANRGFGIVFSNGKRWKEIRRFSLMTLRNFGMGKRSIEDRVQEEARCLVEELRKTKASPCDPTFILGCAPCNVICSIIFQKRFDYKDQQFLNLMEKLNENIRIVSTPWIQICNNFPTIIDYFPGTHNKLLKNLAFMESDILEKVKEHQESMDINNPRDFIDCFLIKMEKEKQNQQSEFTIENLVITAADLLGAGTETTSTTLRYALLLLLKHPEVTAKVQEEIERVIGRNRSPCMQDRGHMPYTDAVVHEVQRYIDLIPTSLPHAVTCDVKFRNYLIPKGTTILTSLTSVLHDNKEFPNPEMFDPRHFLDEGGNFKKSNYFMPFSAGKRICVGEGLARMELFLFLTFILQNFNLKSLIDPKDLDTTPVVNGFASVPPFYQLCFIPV
Description for CT26: Antitumor activity against mouse CT26 cells implanted in BALB/c mouse assessed as tumor growth inhibition at 100 mg/kg, po administered daily for 10 days and measured every 2 days relative to control

In general, IC50 refers to the concentration at which inhibition is half-maximal. With `O=C(O)c1ccc(CNC(=O)c2c3ccccc3nn2Cc2cccc(Cl)c2)cc1`, in [1], the IC50 came to 6.9 nM.

For the molecule `COc1ccc(Cn2nc3ccccc3c2C(=O)N[C@@H](C)c2ccc(C(=O)O)cc2)cc1`, the half-maximal inhibitory concentration (IC50) in data set [1] worked out at 7.2 nM.

In the case of `O=C(O)c1cccc(NC(=O)c2c3ccccc3nn2Cc2cccc(F)c2)c1`, the IC50 in [1] came out at 10000 nM.

With `O=C(O)c1cccc(NC(=O)c2c3ccccc3nn2Cc2ccc(F)cc2)c1`, the 50% inhibitory concentration (IC50) in [1] was determined as 10000 nM.

Regarding `O=C(O)c1ccc(CNC(=O)c2c3ccccc3nn2CCOc2ccc(Cl)cc2)cc1`, the 50% inhibitory concentration (IC50) in data set [1] was 21.8 nM.

As for `O=C(O)c1ccc(C2(NC(=O)c3c4ccccc4nn3Cc3ccc(C(F)(F)F)cc3)CC2)cc1`, the IC50 in data set [1] stood at 6.9 nM.

`O=C(O)c1ccc(CNC(=O)c2nn(Cc3cccc(C(F)(F)F)c3)c3ccccc23)cc1`: the half-maximal inhibitory concentration (IC50) in data set [1] amounted to 10000 nM.

`COc1cccc(Cn2nc3ccccc3c2C(=O)N[C@@H](C)c2ccc(C(=O)O)cc2)c1`: in [1], the IC50 was 19 nM.

With `COc1ccc(Cn2nc3ccccc3c2C(=O)NCc2ccc(C(=O)O)cc2)cc1F`, the IC50 in data set [1] was 2.1 nM.

For `Cc1ccc(Cn2nc3ccccc3c2C(=O)NCc2ccc(C(=O)O)cc2)cc1`, the IC50 in data set [1] came out at 4.2 nM.

For orientation: CLint scaled means the rate of metabolic loss divided by the concentration. Take `O=C(O)c1ccc(CNC(=O)c2c3ccc(F)cc3nn2Cc2ccc(C(F)(F)F)cc2)cc1`: the IC50 in [1] is 5.7 nM. In [2], the CLint scaled is less than 8.6 mL/min/kg.

As for `O=C(O)c1ccc(CNC(=O)c2nn(Cc3ccccc3)c3ccccc23)cc1`, the IC50 in data set [1] was 10000 nM.

For `C[C@H](NC(=O)c1c2ccccc2nn1Cc1ccc(OC(F)(F)F)cc1)c1ccc(C(=O)O)cc1`, the IC50 in data set [1] turned out to be 4.3 nM.

For `O=C(O)c1ccc(CNC(=O)c2c3ccccc3nn2CCOc2cccc(C(F)(F)F)c2)cc1`, in data set [1], the half-inhibitory concentration (IC50) turned out to be 69.1 nM.

With `COc1ccc(Cn2nc(C(=O)NCc3ccc(C(=O)O)cc3)c3ccccc32)cc1`, the half-maximal inhibitory concentration (IC50) in data set [1] was determined as 10000 nM.

With `COc1ccc(Cn2nc3ccccc3c2C(=O)NCc2ccc(C(=O)O)cc2)cc1Cl`, the IC50 in data set [1] came to 6.5 nM.

With `COc1ccc2c(C(=O)NCc3ccc(C(=O)O)cc3)n(Cc3ccc(C(F)(F)F)cc3)nc2c1`, the IC50 in data set [1] is 59.4 nM.

In [3], `O=C(O)c1ccc(NC(=O)c2c3ccccc3nn2Cc2ccc(F)cc2)cc1` had an IC50 of 3110 nM.

On to `O=C(O)c1ccc(CNC(=O)c2nn(Cc3cccc(Cl)c3)c3ccccc23)cc1`, for which, in data set [1], the half-maximal inhibitory concentration (IC50) was 10000 nM.

Take `COc1ccc(Cn2nc3ccccc3c2C(=O)NCc2ccc(C(=O)O)cc2)cc1`: the IC50 in [1] amounted to 4.4 nM.

`O=C(O)c1ccc(CNC(=O)c2c3ccccc3nn2Cc2ccc(F)cc2)cc1`: the half-inhibitory concentration (IC50) in data set [1] is 7.1 nM.

For the molecule `O=C(O)c1ccc(CNC(=O)c2c3ccccc3nn2Cc2ccc(Cl)c(F)c2)cc1`, in data set [1], the half-inhibitory concentration (IC50) is 1.7 nM. Besides, in data set [2], the CLint scaled was less than 8.6 mL/min/kg.

As for `O=C(O)c1ccc(CNC(=O)c2nn(Cc3ccc(OC(F)(F)F)cc3)c3ccccc23)cc1`, in [1], the concentration for half-maximal inhibition (IC50) turned out to be 10000 nM.

Turning to `O=C(O)c1ccc(CNC(=O)c2c3ccccc3nn2Cc2ccc(C(F)(F)F)cc2F)cc1`, in [1], the 50% inhibitory concentration (IC50) came to 2 nM.

Take `COc1c(F)cc(Cn2nc3ccccc3c2C(=O)NCc2ccc(C(=O)O)cc2)cc1F`: in data set [1], the half-maximal inhibitory concentration (IC50) amounted to 7.5 nM.

Turning to `COc1cccc(Cn2nc3ccccc3c2C(=O)NCc2ccc(C(=O)O)cc2)c1`, the half-inhibitory concentration (IC50) in data set [1] is 12 nM.

Take `O=C(O)c1ccc(CNC(=O)c2c3ccccc3nn2Cc2ccc(C(F)(F)F)cc2)cc1`: the IC50 was greater than 50000 nM against Cytochrome P450 1A2; greater than 50000 nM on CYP3A; greater than 10000 nM in data set [4]; greater than 50000 nM against Cytochrome P450 2D6; greater than 50000 nM on Cytochrome P450 2C9; greater than 10000 nM in data set [5]. Besides, the IC50 in data set [6] was 36.3 nM; in data set [7], 1.6 nM; against Cytochrome P450 2C19, greater than 50000 nM.

Consider `O=C(O)c1ccc(CNC(=O)c2c3ccccc3nn2Cc2cccc(F)c2)cc1`, for which the IC50 in data set [1] is 17 nM.

Regarding `O=C(O)c1ccc(CNC(=O)c2nn(Cc3ccc(Cl)cc3)c3ccccc23)cc1`, the IC50 in [1] was 10000 nM.

Regarding `COc1cccc(Cn2nc(C(=O)NCc3ccc(C(=O)O)cc3)c3ccccc32)c1`, in data set [1], the 50% inhibitory concentration (IC50) stood at 10000 nM.

Take `O=C(O)c1ccc(CNC(=O)c2nn(Cc3ccc(C(F)(F)F)cc3)c3ccccc23)cc1`: the IC50 in [1] is 10000 nM.

Molecule `O=C(O)Cc1ccccc1Nc1c(Cl)cccc1Cl` [DICLOFENAC] showed a CLH in data set [8] of 0.2079 mL/min/kg. In addition, in data set [2], the CLint scaled worked out at 187 mL/min/kg.

`C[C@H](NC(=O)c1c(C(F)F)nn(C)c1Oc1cccc(C(F)(F)F)c1)c1ccc(C(=O)O)cc1` [PALUPIPRANT]: the inhibition in vivo at 100 mg/kg with CT26 was 43.3%.

Turning to `C[C@]12CC[C@H]3[C@@H](CCC4=CC(=O)CC[C@@]43C)[C@@H]1CC[C@@H]2O` [TESTOSTERONE], the CLH in [8] amounted to 0.1082 mL/min/kg. For the same molecule, in data set [2], the CLint scaled amounted to 97.4 mL/min/kg.
